As usually defined, the pKi is the negative decadic logarithm of the Ki, by convention in mol/L.

21 compounds from US10577360B2, “Arylamide derivatives having multimodal activity against pain” (ESTEVE PHARMACEUTICALS, S.A., priority 2016, dated 2020) can be followed below.

pKi: −log10 of the molar value.

Chain of Human α2δ-1 subunit of Cav2.2 calcium channel (P54289 25-1103): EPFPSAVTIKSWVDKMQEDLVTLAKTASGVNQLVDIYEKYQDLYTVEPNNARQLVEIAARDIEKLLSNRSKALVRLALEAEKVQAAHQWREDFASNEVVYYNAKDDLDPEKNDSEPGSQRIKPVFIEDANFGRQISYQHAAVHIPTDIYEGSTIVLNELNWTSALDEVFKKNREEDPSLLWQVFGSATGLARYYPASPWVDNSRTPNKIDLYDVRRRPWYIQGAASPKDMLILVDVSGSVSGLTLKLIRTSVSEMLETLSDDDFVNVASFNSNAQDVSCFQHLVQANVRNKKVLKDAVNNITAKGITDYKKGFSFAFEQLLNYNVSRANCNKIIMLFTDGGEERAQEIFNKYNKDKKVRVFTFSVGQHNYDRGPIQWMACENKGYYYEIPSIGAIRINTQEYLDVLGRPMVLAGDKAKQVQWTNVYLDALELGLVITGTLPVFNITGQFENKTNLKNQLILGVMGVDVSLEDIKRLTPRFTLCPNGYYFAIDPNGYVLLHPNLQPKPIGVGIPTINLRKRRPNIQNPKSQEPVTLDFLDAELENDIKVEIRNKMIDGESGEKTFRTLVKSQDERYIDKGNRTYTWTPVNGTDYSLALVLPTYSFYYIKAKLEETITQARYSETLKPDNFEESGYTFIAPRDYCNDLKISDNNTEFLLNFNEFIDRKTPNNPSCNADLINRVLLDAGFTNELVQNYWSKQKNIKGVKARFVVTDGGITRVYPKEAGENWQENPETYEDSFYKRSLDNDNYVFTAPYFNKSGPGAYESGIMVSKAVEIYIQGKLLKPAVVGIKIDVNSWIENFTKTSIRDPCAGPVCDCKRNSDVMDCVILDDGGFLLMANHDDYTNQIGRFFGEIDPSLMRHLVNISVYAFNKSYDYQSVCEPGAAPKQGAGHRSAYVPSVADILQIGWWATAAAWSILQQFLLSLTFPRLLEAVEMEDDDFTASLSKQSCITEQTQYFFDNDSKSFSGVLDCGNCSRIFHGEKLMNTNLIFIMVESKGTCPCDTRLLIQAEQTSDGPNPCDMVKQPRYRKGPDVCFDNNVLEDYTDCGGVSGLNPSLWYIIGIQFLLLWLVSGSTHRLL

The first test concerns the target Human α2δ-1 subunit of Cav2.2 calcium channel (Homo sapiens (Human), UniProt P54289). Kind of test: Human α2δ-1 subunit of Cav2.2 calcium channel assay ([3H]-Gabapentin binding).
Conditions: not given
In the case of `CN1CCCC(N(C(=O)c2cccs2)c2ccn(-c3ccccc3)n2)CC1` (stereo not drawn) [Example 39, N-(1-Methylazepan-4-yl)-N-(1-phenyl-1H-pyrazol-3-yl)thiophene-2-carboxamide], the negative-log Ki (pKi) was 6.30 to 7.00.

For the compound `O=C(c1cccs1)N(c1ccn(-c2ccccc2)n1)C1CCCNC1` (stereo not drawn) [Example 53, N-(1-Phenyl-1H-pyrazol-3-yl)-N-(piperidin-3-yl)thiophene-2-carboxamide], the pKi was 5.30 to 6.30.

Regarding `O=C(c1cccs1)N(CCNCc1ccccc1)c1ccn(-c2ccccc2)n1` [Example 55, N-[2-(Benzylamino)ethyl]-N-(1-phenyl-1H-pyrazol-3-yl)thiophene-2-carboxamide], the pKi is 5.30 to 6.30.

Regarding `O=C(c1cccs1)N(CCCNCc1ccccc1)c1ccn(-c2ccccc2)n1` [Example 56, N-[3-(Benzylamino)propyl]-N-(1-phenyl-1H-pyrazol-3-yl)thiophene-2-carboxamide], the negative logarithm of the Ki (pKi) is 5.30 to 6.30.

For the compound `CNCCN(C(=O)c1cccs1)c1ccn(-c2ccccc2)n1` [Example 57, N-[2-(Methylamino)ethyl]-N-(1-phenyl-1H-pyrazol-3-yl)thiophene-2-carboxamide], the negative-log Ki (pKi) is 5.30 to 6.30.

As for `CN(CCN(C(=O)c1cccs1)c1ccn(-c2ccccc2)n1)Cc1ccccc1` [Example 61, N-{2-[Benzyl(methyl)amino]ethyl}-N-(1-phenyl-1H-pyrazol-3-yl)thiophene-2-carboxamide], the pKi was 5.30 to 6.30.

For `CN(CCCN(C(=O)c1cccs1)c1ccn(-c2ccccc2)n1)Cc1ccccc1` [Example 62, N-{3-[Benzyl(methyl)amino]propyl}-N-(1-phenyl-1H-pyrazol-3-yl)thiophene-2-carboxamide], the pKi is 5.30 to 6.30.

For `CCN(C)CCN(C(=O)c1cccs1)c1ccn(-c2ccccc2)n1` [Example 63], the pKi is 5.30 to 6.30.

Take `CCNCCN(C(=O)c1cccs1)c1ccn(-c2ccccc2)n1` [Example 68, N-[2-(Ethylamino)ethyl]-N-(1-phenyl-1H-pyrazol-3-yl)thiophene-2-carboxamide]: the pKi was 5.30 to 6.30.

In the case of `Cc1nnc(-c2cccc(-n3ccc(N(CCN(C)Cc4ccccc4)C(=O)c4cccs4)n3)c2)o1` [Example 69, N-{2-[Benzyl(methyl)amino]ethyl}-N-{1-[3-(5-methyl-1,3,4-oxadiazol-2-yl)phenyl]-1H-pyrazol-3-yl}thiophene-2-carboxamide], the pKi is 6.30 to 7.00.

Still in this test, the particulars now being: [3H]-Gabapentin binding; read-out: α2δ − 1 (Ki).
With `CN(CCN(C(=O)c1cccs1)c1ccn(-c2ccccc2)n1)Cc1ccncc1` [Example 64, N-{2-[Methyl(pyridin-4-ylmethyl)amino]ethyl}-N-(1-phenyl-1H-pyrazol-3-yl)thiophene-2-carboxamide], the negative-log Ki (pKi) was under 5.30.

Turning to `CN(CCN(C(=O)c1cccs1)c1ccn(-c2ccccc2)n1)Cc1cccnc1` [Example 65], the pKi was 5.30 to 6.30.

As to `CN(C)C1CCC(N(C(=O)c2cccs2)c2ccn(-c3ccccc3)n2)CC1` (stereo not drawn) [Example 127, N-[4-(Dimethylamino)cyclohexyl]-N-(1-phenyl-1H-pyrazol-3-yl)thiophene-2-carboxamide], the pKi was under 5.30.

In the case of `CN(Cc1ccccc1)C1CCC(N(C(=O)c2cccs2)c2ccn(-c3ccccc3)n2)CC1` (stereo not drawn) [Example 128, N-{4-[Benzyl(methyl)amino]cyclohexyl}-N-(1-phenyl-1H-pyrazol-3-yl)thiophene-2-carboxamide], the negative-log Ki (pKi) is under 5.30.

Regarding `Cc1nnc(-c2cccc(-n3ccc(N(C(=O)c4cccs4)[C@H]4CC[C@H](N(C)C)CC4)n3)c2)o1` [Example 149, N-[(1r,4r)-4-(Dimethylamino)cyclohexyl]-N-{1-[3-(5-methyl-1,3,4-oxadiazol-2-yl)phenyl]-1H-pyrazol-3-yl}thiophene-2-carboxamide], the pKi is under 5.30.

Regarding `Cc1nnc(-c2cccc(-n3ccc(N(C(=O)c4cccc(O)c4)[C@H]4CC[C@H](N(C)C)CC4)n3)c2)o1` [Example 150, N-[(1r,4r)-4-(Dimethylamino)cyclohexyl]-3-hydroxy-N-{1-[3-(5-methyl-1,3,4-oxadiazol-2-yl)phenyl]-1H-pyrazol-3-yl}benzamide], the negative logarithm of the Ki (pKi) is under 5.30.

Turning to `Cc1nnc(-c2cccc(-n3ccc(N(C(=O)c4cccs4)[C@H]4CC[C@H](N(C)Cc5ccccc5)CC4)n3)c2)o1` [Example 151, N-{(1r,4r)-4-[Benzyl(methyl)amino]cyclohexyl}-N-{1-[3-(5-methyl-1,3,4-oxadiazol-2-yl)phenyl]-1H-pyrazol-3-yl}thiophene-2-carboxamide], the pKi is under 5.30.

`Cc1nnc(-c2cccc(-n3ccc(N(C(=O)c4cccs4)[C@H]4CC[C@@H](N(C)Cc5ccccc5)CC4)n3)c2)o1` [Example 152, N-{(1s,4s)-4-[Benzyl(methyl)amino]cyclohexyl}-N-{1-[3-(5-methyl-1,3,4-oxadiazol-2-yl)phenyl]-1H-pyrazol-3-yl}thiophene-2-carboxamide]: the pKi was under 5.30.

Consider `Cc1nnc(-c2cccc(-n3ccc(N(C(=O)c4cccc(O)c4)[C@H]4CC[C@H](N(C)Cc5ccccc5)CC4)n3)c2)o1` [Example 153, N-{(1r,4r)-4-[Benzyl(methyl)amino]cyclohexyl}-3-hydroxy-N-{1-[3-(5-methyl-1,3,4-oxadiazol-2-yl)phenyl]-1H-pyrazol-3-yl}benzamide], for which the negative-log Ki (pKi) is under 5.30.

Regarding `Cc1nnc(-c2cccc(-n3ccc(N(C(=O)c4cccc(O)c4)[C@H]4CC[C@@H](N(C)Cc5ccccc5)CC4)n3)c2)o1` [Example 154, N-{(1s,4s)-4-[Benzyl(methyl)amino]cyclohexyl}-3-hydroxy-N-{1-[3-(5-methyl-1,3,4-oxadiazol-2-yl)phenyl]-1H-pyrazol-3-yl}benzamide], the pKi is under 5.30.

Still in this test, the particulars now being: read-out: α2δ − 1 (Ki).
As to `CN1CCCC(N(C(=O)c2cccs2)c2ccn(-c3ccccc3)n2)C1` (stereo not drawn) [Example 67, N-(1-Methylpiperidin-3-yl)-N-(1-phenyl-1H-pyrazol-3-yl)thiophene-2-carboxamide], the negative logarithm of the Ki (pKi) is under 5.30.
